Results taken from publication PMC10489651, “Six New Phenolic Glycosides from the Seeds of Moringa oleifera Lam. and Their α-Glucosidase Inhibitory Activity” (Molecules, 2023).

Target: α-glucosidase
Test: colorimetric α-glucosidase inhibition assay (p-nitrophenyl glucopyranoside substrate, […] nm)
Format: biochemical

Compound: C[C@@H]1O[C@@H](Oc2ccc(Cc3cc(CC#N)ccc3O)cc2)[C@H](O)[C@H](O)[C@H]1O [compound 4, 4-(α-L-rhamnopyranosyl) benzyl-1′-hydroxy-4′-phenylacetonitrile]
- IC50: 382.8 ± 1.42 µM

Compound: C[C@@H]1O[C@@H](Oc2ccc(C/C(=N/OS(=O)(=O)O)S[C@@H]3O[C@H](CO)[C@@H](O)[C@H](O)[C@H]3O)cc2)[C@H](O)[C@H](O)[C@H]1O [compound 16, glucomoringin]
- IC50: 301 ± 6.22 µM
